Assay results from patent publication US11554171B2, “Compounds and methods for the targeted degradation of bromodomain-containing proteins” (Arvinas Operations, Inc., priority 2015, dated 2023).

System: c-myc in 22RV-1 cells
Experiment: Human c-myc ELISA assay
Assay type: cell-based
Settings: Homo sapiens; for Emax: 22Rv1, 18 h, read-out: Degradation of BRD4: Maximum inhibition (%) c-Myc ELISA in 22RV1 cells; for DC50: 22Rv1, read-out: Degradation of BRD4: DC50 (uM) c-Myc ELISA in 22RV1 cells
Method in brief: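 22RV-1 cells treated 18 h with 8-point 1:3 compound dilutions (final top 300 nM or 1 μM, 0.1% DMSO). Cells lysed in RIPA buffer with protease/phosphatase inhibitors, and c-myc protein in cleared lysate quantified by ELISA against a standard curve. DC50 reported for c-myc suppression.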

Structure (SMILES) | Emax | DC50
Cc1ncsc1-c1ccc([C@H](C)NC(=O)[C@@H]2C[C@@H](O)CN2C(=O)[C@@H](NC(=O)/C=C/c2cc(F)cc(OC(C)CNC(=O)C[C@@H]3N=C(c4ccc(Cl)cc4)c4c(sc(C)c4C)-n4c(C)nnc43)c2)C(C)(C)C)cc1 (some centres unmarked) [Example 188] | 95.4% | < 0.01 µM
Cc1ncsc1-c1ccc(CNC(=O)[C@@H]2C[C@@H](O)CN2C(=O)[C@@H](NC(=O)COCCCS(=O)(=O)CCNC(=O)C[C@@H]2N=C(c3ccc(Cl)cc3)c3c(sc(C)c3C)-n3c(C)nnc32)C(C)(C)C)cc1 [Example 101] | 88.3% | 0.1 to 1 µM
Cc1ncsc1-c1ccc(CNC(=O)[C@@H]2C[C@@H](O)CN2C(=O)[C@@H](NC(=O)c2ccn(CCOCCNC(=O)C[C@@H]3N=C(c4ccc(Cl)cc4)c4c(sc(C)c4C)-n4c(C)nnc43)n2)C(C)(C)C)cc1 [Example 91] | < 5% | > 1 µM
Cc1ncsc1-c1ccc([C@H](C)NC(=O)[C@@H]2C[C@@H](O)CN2C(=O)[C@@H](NC(=O)Cc2ccc(O[C@H]3C[C@H](NC(=O)C[C@@H]4N=C(c5ccc(Cl)cc5)c5c(sc(C)c5C)-n5c(C)nnc54)C3)cc2F)C(C)(C)C)cc1 [Example 249, (2S,4R)-1-[(2S)-2-(2-{2-fluoro-4-[(1r,3r)-3-{2-[(9S)-7-(4-chlorophenyl)-4,5,13-trimethyl-3-thia-1,8,11,12-tetraazatricyclo[8.3.0.0^2,^6]trideca-2(6),4,7,10,12-pentaen-9-yl]acetamido}cyclobutoxy]phenyl}acetamido)-3,3-dimethylbutanoyl]-4-hydroxy-N-[(1S)-1-[4-(4-methyl-1,3-thiazol-5-yl)phenyl]ethyl]pyrrolidine-2-carboxamide] | 98.5% | < 0.01 µM
Cc1ncsc1-c1ccc(CNC(=O)[C@@H]2C[C@@H](O)CN2C(=O)[C@@H](NC(=O)COCCCNC(=O)C[C@@H]2N=C(c3ccc(Cl)cc3)c3c(sc(C)c3C)-n3c(C)nnc32)C(C)(C)C)cc1 [Example 44] | 98% | 0.1 to 1 µM
CC1=NN=C2C1c1sc(C)c(C)c1C(c1ccc(Cl)cc1)=N[C@H]2CC(=O)NCCOCCOCCC(=O)N[C@H](C(=O)N1C[C@H](O)CC1C(=O)N[C@@H](C)c1ccc(-c2scnc2C)cc1)C(C)(C)C (some centres unmarked) [Example 136] | 96% | 0.01 to 0.1 µM
Cc1ncsc1-c1ccc([C@H](C)NC(=O)[C@@H]2C[C@@H](O)CN2C(=O)[C@@H](NC(=O)COCCOCCCOc2ccc([C@H](C)NC(=O)CC3N=C(c4ccc(Cl)cc4)c4c(sc(C)c4C)-n4c(C)nnc43)cc2)C(C)(C)C)cc1 (some centres unmarked) [Example 108] | 95.4% | 0.1 to 1 µM
Cc1ncsc1-c1ccc(CNC(=O)[C@@H]2C[C@@H](O)CN2C(=O)[C@@H](NC(=O)CCc2ccc(OCCNC(=O)C[C@@H]3N=C(c4ccc(Cl)cc4)c4c(sc(C)c4C)-n4c(C)nnc43)nc2)C(C)(C)C)cc1 [Example 139, (2S,4R)-1-[(2S)-2-{3-[6-(2-{2-[(9S)-7-(4-chlorophenyl)-4,5,13-trimethyl-3-thia-1,8,11,12-tetraazatricyclo[8.3.0.0^2,^6]trideca-2(6),4,7,10,12-pentaen-n-9-yl]acetamido}ethoxy)pyridin-3-yl]propanamido}-3,3-dimethylbutanoyl]-4-hydroxy-N-{[4-(4-methyl-1,3-thiazol-5-yl)phenyl]methyl}pyrrolidine-2-carboxamide] | 98% | < 0.01 µM
Cc1ncsc1-c1ccc(CNC(=O)[C@@H]2C[C@@H](O)CN2C(=O)[C@@H](c2cc(OCCO[C@H]3C[C@@H](NC(=O)C[C@@H]4N=C(c5ccc(Cl)cc5)c5c(sc(C)c5C)-n5c(C)nnc54)C3)no2)C(C)C)cc1 [Example 317] | 89.9% | < 0.01 µM
Cc1ncsc1-c1ccc([C@H](C)NC(=O)[C@@H]2C[C@@H](O)CN2C(=O)[C@@H](NC(=O)CN2CCN(C3CC4(C3)CN(C(=O)C[C@@H]3N=C(c5ccc(Cl)cc5)c5c(sc(C)c5C)-n5c(C)nnc53)C4)C[C@@H]2C)C(C)(C)C)cc1 [Example 358] | > 90% | 0.01 to 0.1 µM
Cc1sc2c(c1C)C(c1ccc(Cl)cc1)=N[C@@H](CC(=O)N[C@H]1C[C@H](Oc3ccc(CC(=O)N[C@H](C(=O)N4C[C@H](O)C[C@H]4C(=O)N[C@@H](C)c4ccc(S(C)(=O)=O)cc4)C(C)(C)C)cc3)C1)c1nnc(C)n1-2 [Example 307] | 15% | > 1 µM
Cc1noc(-c2ccc([C@H](C)NC(=O)[C@@H]3C[C@@H](O)CN3C(=O)[C@@H](NC(=O)COc3ccc(O[C@H]4C[C@@H](NC(=O)C[C@@H]5N=C(c6ccc(Cl)cc6)c6c(sc(C)c6C)-n6c(C)nnc65)C4)nc3)C(C)(C)C)cc2)n1 [Example 271] | 96.4% | < 0.01 µM
Cc1ncsc1-c1ccc([C@H](C)NC(=O)[C@@H]2C[C@@H](O)CN2C(=O)[C@@H](NC(=O)c2ccc(OC(C)CCNC(=O)C[C@@H]3N=C(c4ccc(Cl)cc4)c4c(sc(C)c4C)-n4c(C)nnc43)cn2)C(C)(C)C)cc1 (some centres unmarked) [Example 157] | 97% | < 0.01 µM
Cc1ncsc1-c1ccc([C@H](C)NC(=O)[C@@H]2C[C@@H](O)CN2C(=O)[C@@H](NC(=O)c2cc3cc(O[C@H]4C[C@H](NC(=O)C[C@@H]5N=C(c6ccc(Cl)cc6)c6c(sc(C)c6C)-n6c(C)nnc65)C4)ccc3o2)C(C)(C)C)cc1 [Example 207, (2S,4R)-1-[(2S)-3,3-dimethyl-2-({5-[(1,3trans)-3-{2-[(9S)-7-(4-chlorophenyl)-4,5,13-trimethyl-3-thia-1,8,11,12-tetraazatricyclo[8.3.0.0^2,^6]trideca-2(6),4,7,10,12-pentaen-9-yl]acetamido}cyclobutoxy]-1-benzofuran-2-yl}formamido)butanoyl]-4-hydroxy-N-[(1S)-1-[4-(4-methyl-1,3-thiazol-5-yl)phenyl]ethyl]pyrrolidine-2-carboxamide] | 89.5% | < 0.01 µM
Cc1ncsc1-c1ccc([C@H](C)NC(=O)[C@@H]2C[C@@H](O)CN2C(=O)[C@@H](NC(=O)COc2ccc(N3CC[C@@H](NC(=O)C[C@@H]4N=C(c5ccc(Cl)cc5)c5c(sc(C)c5C)-n5c(C)nnc54)C3)nc2)C(C)(C)C)cc1 [Example 242] | 98% | < 0.01 µM
Cc1ncsc1-c1ccc([C@H](C)NC(=O)[C@@H]2C[C@@H](O)CN2C(=O)[C@@H](C(C)C)n2cc(-c3cnc(O[C@H]4C[C@H](NC(=O)C[C@@H]5N=C(c6ccc(Cl)cc6)c6c(sc(C)c6C)-n6c(C)nnc65)C4)cn3)cn2)cc1 [Example 283] | 89.5% | 0.01 to 0.1 µM
Cc1ncsc1-c1ccc(CNC(=O)[C@@H]2C[C@@H](O)CN2C(=O)[C@@H](C(C)C)n2cc(Oc3ccc(CNC(=O)C[C@@H]4N=C(c5ccc(Cl)cc5)c5c(sc(C)c5C)-n5c(C)nnc54)cc3)cn2)cc1 [Example 237] | 13.8% | > 1 µM
Cc1ncsc1-c1ccc(CNC(=O)[C@@H]2C[C@@H](O)CN2C(=O)[C@@H](NC(=O)CCCCCCCCNC(=O)C[C@@H]2N=C(c3ccc(Cl)cc3)c3c(sc(C)c3C)-n3c(C)nnc32)C(C)(C)C)cc1 [Example 68] | 95.4% | 0.01 to 0.1 µM
Cc1ncsc1-c1ccc(CNC(=O)[C@@H]2C[C@@H](O)CN2C(=O)[C@@H](NC(=O)COCCO[C@H]2C[C@H](NC(=O)C[C@@H]3N=C(c4ccc(Cl)cc4)c4c(sc(C)c4C)-n4c(C)nnc43)C2)C(C)(C)C)cc1 [Example 137] | 86.9% | 0.1 to 1 µM
Cc1ncsc1-c1ccc(CNC(=O)[C@@H]2C[C@@H](O)CN2C(=O)[C@@H](NC(=O)COCCC[S+]([O-])CCNC(=O)C[C@@H]2N=C(c3ccc(Cl)cc3)c3c(sc(C)c3C)-n3c(C)nnc32)C(C)(C)C)cc1 (some centres unmarked) [Example 112] | 26.8% | > 1 µM
Cc1ncsc1-c1ccc([C@H](C)NC(=O)[C@@H]2C[C@@H](O)CN2C(=O)[C@@H](NC(=O)Cc2cccc(C(=O)N3CCN(C(=O)C[C@@H]4N=C(c5ccc(Cl)cc5)c5c(sc(C)c5C)-n5c(C)nnc54)CC3)c2)C(C)(C)C)cc1 [Example 326] | 92% | 0.01 to 0.1 µM
Cc1ncsc1-c1ccc(CNC(=O)[C@@H]2C[C@@H](O)CN2C(=O)[C@@H](NC(=O)COCCN2CCC(c3ccc([C@@H](C)NC(=O)C[C@@H]4N=C(c5ccc(Cl)cc5)c5c(sc(C)c5C)-n5c(C)nnc54)cc3)CC2)C(C)(C)C)cc1 [Example 57] | 94% | 0.1 to 1 µM
Cc1ncsc1-c1ccc(CNC(=O)[C@@H]2C[C@@H](O)CN2C(=O)[C@@H](NC(=O)COCCOCCOCCCOCCOCCN(C)C(=O)C[C@@H]2N=C(c3ccc(Cl)cc3)c3c(sc(C)c3C)-n3c(C)nnc32)C(C)(C)C)cc1 [Example 17, (2S,4R)-1-[(2S)-2-(18-{2-[(9S)-7-(4-chlorophenyl)-4,5,13-trimethyl-3-thia-1,8,11,12-tetraazatricyclo[8.3.0.0^2,^6]trideca-2(6),4,7,10,12-pentaen-9-yl]-N-methylacetamido}-3,6,9,13,16-pentaoxaoctadecanamido)-3,3-dimethylbutanoyl]-4-hydroxy-N-{[4-(4-methyl-1,3-thiazol-5-yl)phenyl]methyl}pyrrolidine-2-carboxamide] | 85% | 0.1 to 1 µM
Cc1ncsc1-c1ccc(CNC(=O)[C@@H]2C[C@@H](O)CN2C(=O)[C@@H](NC(=O)COCCN2CCC(c3ccc([C@H](C)NC(=O)C[C@@H]4N=C(c5ccc(Cl)cc5)c5c(sc(C)c5C)-n5c(C)nnc54)cc3)CC2)C(C)(C)C)cc1 [Example 52] | 93% | 0.1 to 1 µM
Cc1ncsc1-c1ccc([C@H](C)NC(=O)[C@@H]2C[C@@H](O)CN2C(=O)[C@@H](NC(=O)CCc2ccc(O[C@H]3C[C@H](NC(=O)C[C@@H]4N=C(c5ccc(Cl)cc5)c5c(sc(C)c5C)-n5c(C)nnc54)C3)nc2)C(C)(C)C)cc1 [Example 172] | 96% | < 0.01 µM
